Assay results taken from US8809341B2, “2,4-pyrimidinediamine compounds and uses as anti-proliferative agents” (Rigel Pharmaceuticals, Inc., priority 2003, dated 2014).

How the values were obtained:
H1299 cells = test: in vitro antiproliferation assay, H1299 (lung); assay type: cell-based; conditions: H1299 (lung) cells
How it was run: (§1)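 IC50 values came from standard antiproliferation testing in cultured tumour cells; the A549 and H1299 lines are of lung origin.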

A549 cells = test: in vitro antiproliferation assay, A549 (lung); assay type: cell-based; conditions: A549 (lung) cells
How it was run: as §1

| IC50 (H1299 cells; in vitro antiproliferation) | IC50 (A549 cells; in vitro antiproliferation) | IC50 (H1299 cells; antiproliferation) | IC50 (A549 cells; antiproliferation) | SMILES |
| --- | --- | --- | --- | --- |
| ≤ 20 µM | ≤ 20 µM | – | – | COc1cc(Nc2ncc(F)c(Nc3cc(OC)cc(C(F)(F)F)c3)n2)cc(C(F)(F)F)c1 [compound 819] |
| ≤ 20 µM | > 20 µM | – | – | COc1cc(Nc2nc(Nc3cc(C)cc(C(F)(F)F)c3)ncc2F)cc(C(F)(F)F)c1 [compound 820] |
| ≤ 20 µM | ≤ 20 µM | – | – | COc1cc(Nc2nc(Nc3cc(OC)c(OC)c(OC)c3)ncc2F)cc(C(F)(F)F)c1 [compound 821] |
| ≤ 20 µM | ≤ 20 µM | – | – | COc1cc(Nc2nc(Nc3cc(C)c(O)c(Cl)c3)ncc2F)cc(C(F)(F)F)c1 [compound 822] |
| ≤ 20 µM | ≤ 20 µM | – | – | COc1cc(Nc2nc(Nc3cc(Cl)cc(Cl)c3)ncc2F)cc(C(F)(F)F)c1 [compound 823] |
| < 20 µM | ≤ 20 µM | – | – | COc1cc(Nc2nc(Nc3cc(CO)cc(CO)c3)ncc2F)cc(C(F)(F)F)c1 [compound 824] |
| ≤ 20 µM | ≤ 20 µM | – | – | COc1cc(Nc2nc(Nc3cc(C)c(Cl)c(C)c3)ncc2F)cc(C(F)(F)F)c1 [compound 825] |
| ≤ 20 µM | ≤ 20 µM | – | – | COc1ccc(Nc2nc(Nc3cc(Cl)c(O)c(Cl)c3)ncc2F)cc1Cl [compound 828] |
| ≤ 20 µM | ≤ 20 µM | – | – | Oc1c(Cl)cc(Nc2ncc(F)c(Nc3ccc(OC(F)(F)F)c(Cl)c3)n2)cc1Cl [compound 829] |
| > 20 µM | > 20 µM | – | – | COc1ccc(Nc2nc(Nc3cc(Cl)c(OC)c(Cl)c3)ncc2F)cc1Cl [compound 831] |
| > 20 µM | ≤ 20 µM | – | – | COc1c(Cl)cc(Nc2ncc(F)c(Nc3ccc(OC(F)(F)F)c(Cl)c3)n2)cc1Cl [compound 832] |
| ≤ 20 µM | ≤ 20 µM | – | – | COc1c(Cl)cc(Nc2ncc(F)c(Nc3ccc(Cl)c(Cl)c3)n2)cc1Cl [compound 834] |
| ≤ 20 µM | ≤ 20 µM | – | – | COc1cc(Nc2nc(Nc3cc(CO)cc(CO)c3)ncc2F)cc(OC)c1 [compound 842] |
| ≤ 20 µM | ≤ 20 µM | – | – | COc1ccc(Nc2nc(Nc3cc(CO)cc(CO)c3)ncc2F)cc1Cl [compound 843] |
| ≤ 20 µM | ≤ 20 µM | – | – | OCc1cc(CO)cc(Nc2ncc(F)c(Nc3ccc(Cl)c(Cl)c3)n2)c1 [compound 844] |
| ≤ 20 µM | ≤ 20 µM | – | – | COc1cc(Nc2nc(Nc3cc(OC)cc(C(F)(F)F)c3)ncc2F)cc(OC)c1 [compound 849] |
| > 20 µM | > 20 µM | – | – | CNC(=O)COc1cccc(Nc2ncc(F)c(N(C)c3cc(OC)cc(OC)c3)n2)c1 [compound 850] |
| ≤ 20 µM | ≤ 20 µM | – | – | COc1cc(Nc2ncc(F)c(N(C)c3cc(OC)cc(OC)c3)n2)cc(OC)c1 [compound 852] |
| > 20 µM | > 20 µM | – | – | COc1cc(OC)cc(N(C)c2nc(Nc3ccc(OC)c(Cl)c3)ncc2F)c1 [compound 853] |
| > 20 µM | > 20 µM | – | – | COc1cc(OC)cc(N(C)c2nc(Nc3ccc(Cl)c(OC)c3)ncc2F)c1 [compound 854] |
| ≤ 20 µM | ≤ 20 µM | – | – | COc1cc(Nc2ncc(F)c(Nc3ccc(OC)c(OC)c3)n2)cc(OC)c1 [compound 856] |
| ≤ 20 µM | ≤ 20 µM | – | – | COc1cc(Nc2nc(Nc3cccc(N4CCN(C(C)=O)CC4)c3)ncc2F)cc(OC)c1 [compound 861] |
| ≤ 20 µM | ≤ 20 µM | – | – | COc1ccc(Nc2nc(Nc3cccc(N4CCN(C(C)=O)CC4)c3)ncc2F)cc1OC [compound 862] |

| IC50 (H1299 cells; in vitro antiproliferation) | IC50 (A549 cells; in vitro antiproliferation) | IC50 (H1299 cells; antiproliferation) | IC50 (A549 cells; antiproliferation) | SMILES |
| --- | --- | --- | --- | --- |
| ≤ 20 µM | ≤ 20 µM | – | – | COc1ccc(Nc2nc(Nc3ccc(N4CCN(C(C)=O)CC4)cc3)ncc2F)cc1OC [compound 863] |
| ≤ 20 µM | ≤ 20 µM | – | – | COc1ccc(N(C)c2nc(Nc3cc(C)cc(C)c3)ncc2F)cc1OC [compound 864] |
| ≤ 20 µM | ≤ 20 µM | – | – | COc1cc(Nc2ncc(F)c(N(C)c3ccc(OC)c(OC)c3)n2)cc(OC)c1 [compound 865] |
| ≤ 20 µM | ≤ 20 µM | – | – | COc1cc(Nc2nc(Nc3ccc(N4CCN(C(C)=O)CC4)cc3)ncc2F)cc(OC)c1 [compound 866] |
| ≤ 20 µM | > 20 µM | – | – | COc1ccc(N(C)c2nc(Nc3cccc(-c4cnco4)c3)ncc2F)cc1OC [compound 867] |
| – | – | > 20 µM | > 20 µM | CNC(=O)COc1cccc(Nc2ncc(F)c(N(C)c3ccc(OC)c(OC)c3)n2)c1 [compound 870] |
| – | – | ≤ 20 µM | ≤ 20 µM | CNC(=O)c1ccc(Nc2ncc(F)c(Nc3ccc(OC)c(OC)c3)n2)cc1Cl [compound 871] |
| – | – | ≤ 20 µM | ≤ 20 µM | CNC(=O)c1ccc(Nc2ncc(F)c(Nc3cc(OC)cc(OC)c3)n2)cc1Cl [compound 872] |
| – | – | ≤ 20 µM | ≤ 20 µM | CNC(=O)c1ccc(Nc2ncc(F)c(N(C)c3ccc(OC)c(OC)c3)n2)cc1Cl [compound 875] |
| – | – | ≤ 20 µM | ≤ 20 µM | CNS(=O)(=O)c1ccc(Nc2ncc(F)c(Nc3ccc(OC)c(OC)c3)n2)cc1OC [compound 879] |
| – | – | ≤ 20 µM | ≤ 20 µM | CNS(=O)(=O)c1ccc(Nc2ncc(F)c(Nc3cc(OC)cc(OC)c3)n2)cc1OC [compound 880] |
| – | – | ≤ 20 µM | ≤ 20 µM | CNS(=O)(=O)c1ccc(Nc2nc(Nc3cc(OC)cc(OC)c3)ncc2F)cc1OC [compound 884] |
| – | – | ≤ 20 µM | ≤ 20 µM | Oc1cccc(Nc2nc(Nc3cccc(-c4ncco4)c3)ncc2F)c1 [compound 885] |
| – | – | ≤ 20 µM | ≤ 20 µM | COc1ccc(Nc2nc(Nc3cccc(-c4ncon4)c3)ncc2F)cc1OC [compound 886] |
| – | – | ≤ 20 µM | ≤ 20 µM | COC(=O)c1cc(Nc2ncc(F)c(Nc3ccc(OC)c(OC)c3)n2)cc(-c2ncco2)c1 [compound 887] |
| – | – | ≤ 20 µM | ≤ 20 µM | CC(=O)c1cc(Nc2ncc(F)c(Nc3cccc(O)c3)n2)cc(-c2ncco2)c1 [compound 888] |
| – | – | ≤ 20 µM | ≤ 20 µM | COc1ccc(Nc2nc(Nc3cc(-c4ncco4)cc(C(F)(F)F)c3)ncc2F)cc1OC [compound 889] |
| – | – | ≤ 20 µM | ≤ 20 µM | Oc1cccc(Nc2nc(Nc3cccc(-c4ncon4)c3)ncc2F)c1 [compound 890] |
| – | – | > 20 µM | > 20 µM | COC(=O)c1cc(Nc2ncc(F)c(Nc3cc(C(=O)OC)cc(-c4ncco4)c3)n2)cc(-c2ncco2)c1 [compound 891] |
| – | – | ≤ 20 µM | ≤ 20 µM | Fc1cnc(Nc2cc(-c3ncco3)cc(C(F)(F)F)c2)nc1Nc1cc(-c2ncco2)cc(C(F)(F)F)c1 [compound 892] |
| – | – | ≤ 20 µM | ≤ 20 µM | Cc1cc(Nc2ncc(F)c(Nc3ccc(N4CCN(C)CC4)c(C)c3)n2)ccc1N1CCN(C)CC1 [compound 894] |
| – | – | ≤ 20 µM | ≤ 20 µM | COc1cc(Nc2ncc(F)c(Nc3cc(C)cc(C)c3)n2)cc(OC)c1OC [compound 895] |
| – | – | ≤ 20 µM | ≤ 20 µM | Cc1cc(C)cc(Nc2nc(Nc3cc(C)c(Cl)c(Cl)c3)ncc2F)c1 [compound 896] |

| IC50 (H1299 cells; in vitro antiproliferation) | IC50 (A549 cells; in vitro antiproliferation) | IC50 (H1299 cells; antiproliferation) | IC50 (A549 cells; antiproliferation) | SMILES |
| --- | --- | --- | --- | --- |
| – | – | ≤ 20 µM | ≤ 20 µM | Cc1cc(C)cc(Nc2nc(Nc3cc(CO)cc(CO)c3)ncc2F)c1 [compound 897] |
| – | – | > 20 µM | > 20 µM | Cc1cc(C)cc(Nc2nc(Nc3cc(Cl)cc(Cl)c3)ncc2F)c1 [compound 898] |
| – | – | ≤ 20 µM | ≤ 20 µM | Cc1cc(C)cc(Nc2nc(Nc3cc(Cl)c(Cl)c(Cl)c3)ncc2F)c1 [compound 899] |
| – | – | > 20 µM | > 20 µM | Cc1cc(C)cc(Nc2nc(Nc3cc(C)c(Cl)c(C)c3)ncc2F)c1 [compound 900] |
| – | – | ≤ 20 µM | ≤ 20 µM | CNC(=O)COc1c(C)cc(Nc2ncc(F)c(Nc3cc(OC)cc(OC)c3)n2)cc1C [compound 902] |
| – | – | ≤ 20 µM | ≤ 20 µM | COc1cc(Nc2ncc(F)c(N(C)c3ccc(OC)c(Cl)c3)n2)cc(OC)c1 [compound 903] |
| – | – | > 20 µM | > 20 µM | COc1ccc(N(C)c2nc(Nc3cc(C)c(OC)c(Cl)c3)ncc2F)cc1Cl [compound 904] |
| – | – | ≤ 20 µM | ≤ 20 µM | CNC(=O)COc1c(C)cc(Nc2ncc(F)c(N(C)c3ccc(OC)c(Cl)c3)n2)cc1C [compound 905] |
| – | – | ≤ 20 µM | ≤ 20 µM | CNC(=O)COc1cccc(Nc2ncc(F)c(N(C)c3ccc(OC)c(Cl)c3)n2)c1 [compound 906] |
| – | – | ≤ 20 µM | > 20 µM | COc1ccc(N(C)c2nc(Nc3ccc(C)cc3)ncc2F)cc1Cl [compound 907] |
| – | – | ≤ 20 µM | ≤ 20 µM | COc1cc(N(C)c2nc(Nc3cc(C)cc(C)c3)ncc2F)ccc1Cl [compound 909] |
| – | – | > 20 µM | ≤ 20 µM | CNC(=O)COc1cccc(Nc2ncc(F)c(N(C)c3ccc(Cl)c(OC)c3)n2)c1 [compound 910] |
| – | – | > 20 µM | > 20 µM | Cc1cc(C)cc(Nc2ncc(F)c(N(C)c3cc(C)c(Cl)c(C)c3)n2)c1 [compound 912] |
| – | – | ≤ 20 µM | ≤ 20 µM | CNC(=O)COc1cccc(Nc2ncc(F)c(N(C)c3cc(C)c(Cl)c(C)c3)n2)c1 [compound 913] |
| – | – | > 20 µM | > 20 µM | Cc1cc(N(C)c2nc(Nc3cccc(-c4cnco4)c3)ncc2F)cc(C)c1Cl [compound 914] |
| – | – | ≤ 20 µM | ≤ 20 µM | CNC(=O)COc1ccc(Nc2nc(Nc3ccc(OC)c(Cl)c3)ncc2F)cc1Cl [compound 917] |
| – | – | ≤ 20 µM | ≤ 20 µM | CNC(=O)c1ccc(Nc2ncc(F)c(N(C)c3cc(C)c(Cl)c(C)c3)n2)cc1Cl [compound 921] |
| – | – | ≤ 20 µM | ≤ 20 µM | COc1cc(Nc2nc(Nc3cccc(-c4ncco4)c3)ncc2F)cc(OC)c1OC [compound 932] |
| – | – | ≤ 20 µM | ≤ 20 µM | COc1ccc(Nc2ncc(F)c(Nc3ccc(OCCCN4CCOCC4)c(C)c3)n2)cc1OC [compound 945] |
| – | – | ≤ 20 µM | > 20 µM | CCOC(=O)COc1cccc(Nc2ncc(F)c(Nc3cc(C)c(O)c(Cl)c3)n2)c1 [compound 952] |
| – | – | ≤ 20 µM | > 20 µM | CC(C)c1cccc(Nc2ncc(F)c(Nc3cccc(C(C)C)c3)n2)c1 [compound 968] |
| – | – | ≤ 20 µM | ≤ 20 µM | COc1ccc(Nc2ncc(F)c(Nc3cccc(O)c3)n2)cc1OC [compound 969] |
